Laboratory results taken from patent publication US9738610B2, “Indazole derivatives and uses thereof” (Whitehead Institute for Biomedical Research, priority 2012, dated 2017).
Like-named read-outs stand apart in the source and are kept apart here.

Assays:
[1] = tested on: C. albicans CaCi-2; test: Secondary single-agent (no-fluconazole) activity assay; assay type: cell-based, Candida albicans; conditions: for IC50: Candida albicans
In short: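 C. albicans CaCi-2 in RPMI synthetic defined medium with 1% Pen/Strep, starting OD600 0.00015, exposed to compound alone (no fluconazole) for 48 h at 37 °C without agitation. Growth read as Alamar Blue fluorescence (1:200 final) after 2 h at room temperature.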

[2] = PBS solubility; conditions: PBS, aqueous buffer

## COC(=O)Cn1nc(-c2cccc(OC)c2)c2ccccc21 [Compound I-4, methyl 2-(3-(3-methoxyphenyl)-1H-indazol-1-yl)acetate]
[1]
  Dose-dependent activity against C. albicans CaCi-2: inactive
[1]; CACI2, read-out: Activity without fluconazole IC50 (nM)
  IC50: > 26000 nM
[1]; CACI2, read-out: CaCi-2 IC50 without fluconazole
  IC50: > 26000 nM
[1]; activity without fluconazole vs CaCi-2 growth inhibition with fluconazole
  Fold Selective* (Anti-target IC50/Target IC50): 59
[2]
  solubility: < 1 µM
